The values that follow come from publication PMC10641831 (Journal of Medicinal Chemistry, 2023).

Broadly, the Emax is the greatest response seen or fitted, relative to the assay's reference.

The target in data set [1] is T1, hV1bR (Homo sapiens, UniProt P47901).
T1 construct: expressed in transfected cells
T1 sequence (P47901 1-424): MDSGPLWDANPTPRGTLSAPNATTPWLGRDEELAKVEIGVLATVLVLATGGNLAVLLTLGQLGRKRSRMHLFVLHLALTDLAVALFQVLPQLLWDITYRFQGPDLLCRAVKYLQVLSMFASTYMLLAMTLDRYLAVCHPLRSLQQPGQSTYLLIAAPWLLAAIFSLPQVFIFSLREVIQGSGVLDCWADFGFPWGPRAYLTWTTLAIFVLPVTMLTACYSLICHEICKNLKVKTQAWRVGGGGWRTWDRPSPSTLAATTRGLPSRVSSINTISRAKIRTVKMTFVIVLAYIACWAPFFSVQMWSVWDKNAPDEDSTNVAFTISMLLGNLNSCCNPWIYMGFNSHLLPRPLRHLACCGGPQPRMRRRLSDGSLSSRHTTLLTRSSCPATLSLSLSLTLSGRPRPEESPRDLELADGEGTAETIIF
The data set can be described thus: IP-One accumulation assay, agonist function, HEK293 cells expressing hV1bR. The note with it: for Emax: HEK293, relative to the effect of VP, read-out: V1bR Emax ± SEM; for V1bR E/Z ratio EC50: ratio of EC50 of E- and Z-isomer. The class given is cell-based.

In data set [2] the target is T2, hV1aR (Homo sapiens, UniProt P37288).
T2 construct: expressed in transfected cells
The data set can be described thus: IP-One accumulation assay, agonist function, HEK293 cells expressing hV1aR. In kind it is cell-based.

A short description of data set [3]: Thermal half-life of the Z-isomer (UV/vis, 96-well plate). The note with it: for t1/2 (thermal half-life, Figure S50): 50 µM in HEPES buffer + 0.25% DMSO, pre-irradiated with 340 nm; for t1/2 (thermal half-life Z to E): preirradiation with 340 nm. The class given is physicochemical. The text has this: All photoprobes were investigated regarding their photophysical properties in aqueous buffer (pH 7.5), mimicking the conditions of the biological functional assays. […] Upon irradiation with 340 nm light for 10 s and monitoring via UV/vis spectroscopy, all compounds could be switched to the Z-isomer, reaching the photostationary state (PSS). Compounds 8–17 containing azobenzene could be switched back to the E-isomer by irradiation at 420 nm for 60 s. Compounds 18 and 19 containing arylazopyrazole could be reverted to the E isomer by using 528 nm light. […] The PSS, when switched to the Z-isomer, was consistently good, with a PSS of 81–95%. […] The thermal half-lives of 10 and 12 were also measured at 37 °C, representing the temperature during the biological assays. As expected, the thermal half-lives decreased, however, the ratio of E and Z isomers remained stable during the incubation period of the biological assays (1 h).
Starting materials and commercial reagents were purchased from Acros, Alfa Aesar, Fisher, Fluka, Fluorochem, Merck (Sigma-Aldrich), TCI and VWR and were used without further purification. Solvents were used in p.a. quality or dried according to common procedures if necessary. All reactions with oxygen- or moisture-sensitive reagents were carried out in glassware that was dried before use by heating under vacuum. Dry nitrogen or argon was used for an inert gas atmosphere. All NMR spectra were measured at room temperature (20 °C) using a Bruker Avance 400 (400 MHz for ^1H and 101 MHz for ^13C) or a Bruker Avance 600 (600 MHz for ^1H and 151 MHz for ^13C) NMR spectrometer. All chemical shifts are reported in δ-scale as parts per million [ppm] (multiplicity, coupling constant J, number of protons) relative to the solvent residual peaks. Coupling constants J are given in hertz [Hz]. Abbreviations used for signal multiplicity: ^1H NMR: s = singlet, d = doublet, dd = doublet of doublets, ddd = doublet of doublets of doublets, dt = doublet of triplets, t = triplet, td = triplet of doublets, q = quartet, and m = multiplet. All mass spectra were recorded on an Agilent Q-TOF 6540 UHD, Finnigan MAT SSQ 710 A, Jeol AccuTOF GCX or ThermoQuest Finnigan TSQ 7000 spectrometer. Absorption spectra were recorded on an UV/vis Agilent Cary 50 spectrometer. Thermal half-lives were measured on a 96-well plate in a Thermo Scientific Multiskan Spectrum. Analytical TLC was performed on silica gel-coated alumina plates (MN precoated TLC-sheets ALUGRAM Xtra SIL G/UV254). Visualization was done using UV light (254 or 366 nm) or staining with ninhydrin solution. Column chromatography was performed on a Biotage Isolera One automated flash purification system with a UV/vis detector. Analytical RP-HPLC was carried out on an Agilent 1220 Infinity LC System (column: P/No 00F-4251-B0, Phenomenex Luna 3 μm C18(2) 100 Å, LC column 150 mm × 2.0 mm). Purification by preparative HPLC was conducted on a preparative HPLC Agilent 1260 Infinity LC System [column: P/No 00G-4253-P0-AX, Phenomenex Luna 10 μm C18(2) 100 Å, LC column 250 mm × 21.2 mm]. The eluent systems were used as specified. After the purification process, solvents were removed by lyophilization. Switching experiments were done with a 340 nm LED (SSC VIOSYS CUD4AF1B, 500 mA, 55 mW), 420 nm LED (ILH-XC01-S410-SC211-WIR200, 800 mA, 440 mW), and 528 nm LED (OSRAM Oslon SSL 80 green, 500 mA, 34 mW). Purity of all photoprobes was >95% as determined by analytical RP-HPLC at 220 nm in DMSO.
1.3.4. Thermal Half-lives
Thermal half-lives were measured in a 96-well plate in a Thermo Scientific Multiskan® Spectrum at 25 °C (and at 37 °C for compounds 10 and 12). The solutions (50 µM in HEPES buffer + 0.25% DMSO) were pre-irradiated with 340 nm. The absorption at 335 nm was measured every 3 h. The data was analyzed using Origin 2021.
0,7 1/2 ExpDec1 Fit of Sheet1 B
Modell ExpDec1 0,35 Modell ExpDec1
0,6 Gleichung y = A 1 *e xp (-x/t1 ) + y0 Gleichung y = A 1 *e xp (-x/t1 ) + y0 […]

Data set [4] in a line: Photostationary state by analytical C18-RP-HPLC. The class given is physicochemical. The note with it: for PSS (E → Z): irradiation with 340 nm, HEPES buffer; for PSS (Z → E): irradiation with 420 nm (8–17) or 528 nm (18, 19). The method, then: All photoprobes were investigated regarding their photophysical properties in aqueous buffer (pH 7.5), mimicking the conditions of the biological functional assays.
1.3.2. Photostationary States
Photostationary states (PSS) were measured on analytical C18-RP-HPLC (flow: 0.3 mL/min, solvent A: H2O (0.05% TFA), solvent B: MeCN). To determine the PSS of the photoswitches, the samples (in 0.1 mM in HEPES buffer + 1% DMSO, pH 7.5) were irradiated first with 340 nm to get the Z-isomer. Afterwards, the sample was irradiated with 420 nm (8-17) or 528 nm (18 and 19), respectively, to get back to the E-isomer. The samples were measured at the isosbestic points.

For data set [5], the target named is T2, hV1aR. The data set can be described thus: IP-One accumulation assay, antagonist function (VP displacement) at hV1aR. Conditions: coaddition of VP 1 nM; for antagonistic activity at V1aR: 10 and 100 μM. The class given is cell-based. The method, then: This was done via coaddition and prior mixing of VP (EC60 of 1 nM) and the potential antagonists 13–19. […] IP1 accumulation was measured at concentrations of 10 and 100 μM for peptides 13–19.
Figure 5 Functional screen for antagonistic activities at V1aR. […] Data represent mean ± SEM from at least three independent experiments, each performed in triplicate.
To assess the antagonistic properties of compounds 13–19, a 4-fold concentrated dilution series in stimulation buffer was prepared for each isomer. Separately, a 4-fold concentrated VP solution was prepared (4 nM, final concentration 1 nM). A 1:1 mixture of VP solution and the diluted ligand was made to end up with a 2-fold concentration of both compounds. The following steps were conducted as described above for the agonist mode. The FRET ratios (665/615 nm) were calculated and obtained values were normalized to the basal activity value (0%) and maximal effect of VP (100%). Atosiban was used as a positive control.

[6] abbreviates: IP-One, stable HEK293 hV1bR, read-out: V1bR EC50 ± SEM.
The mark [7] stands for this setting: IP-One, stable HEK293 hV1aR, μM, read-out: V1aR EC50.

“And” between values parts separate entries of the source, which are not always exact repeats. Identical values can stand only once. Like-named read-outs stand apart in the source and are kept apart here. Numbered stars: 1 amine (or outer) side, 2 acyl side, 3 side chain; on linkers, the order of the positions; unused ones are H or OH. Bridge positions count the residues as written; N and C are the ends. Square brackets hold non-standard residues; d marks the D form. Peptide text beside a SMILES is read from it. AMPB(E) = O=C(c1ccc(/N=N/c2ccc(CN[*:1])cc2)cc1)[*:2]; X2 = O=C(c1ccc(/N=N\c2ccc(CN[*:1])cc2)cc1)[*:2]

T2 sequence (P37288 whole entry): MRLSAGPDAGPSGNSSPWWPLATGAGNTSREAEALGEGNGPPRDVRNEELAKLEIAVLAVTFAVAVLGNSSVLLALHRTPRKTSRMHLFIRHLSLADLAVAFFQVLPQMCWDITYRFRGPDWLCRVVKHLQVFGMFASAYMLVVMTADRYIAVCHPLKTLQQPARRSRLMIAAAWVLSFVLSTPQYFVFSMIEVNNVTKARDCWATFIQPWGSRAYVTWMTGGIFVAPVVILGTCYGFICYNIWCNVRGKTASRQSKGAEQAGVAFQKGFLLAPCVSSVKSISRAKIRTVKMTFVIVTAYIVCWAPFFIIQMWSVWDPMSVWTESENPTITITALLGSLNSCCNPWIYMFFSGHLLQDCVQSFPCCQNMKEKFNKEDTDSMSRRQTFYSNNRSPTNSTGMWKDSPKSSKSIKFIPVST

Consider `NC(=O)CC[C@@H]1NC(=O)[C@H](Cc2ccccc2)NC(=O)[C@H](Cc2ccc(O)cc2)NC(=O)[C@@H](N)CSSC[C@@H](C(=O)NCc2ccc(/N=N/c3ccc(C(=O)NCC(N)=O)cc3)cc2)NC(=O)[C@H](CC(N)=O)NC1=O` [E-13] (H-CYFQNC[AMPB(E)]G-NH2; disulfide 1-6), for which the Emax in data set [1] is 45 ± 3%. Besides, the EC50 in data set [1] (setting [6]) was 11.3 µM; in data set [2] (setting [7]), above 10 µM. For the same molecule, the “V1bR E/Z ratio EC50” value in data set [1] was 1.6.
For the molecule `N=C(N)NCCC[C@H](NC(=O)c1ccc(/N=N/c2ccc(CNC(=O)[C@@H]3CSSC[C@H](N)C(=O)N[C@@H](Cc4ccc(O)cc4)C(=O)N[C@@H](Cc4ccccc4)C(=O)N[C@@H](CCC(N)=O)C(=O)N[C@@H](CC(N)=O)C(=O)N3)cc2)cc1)C(=O)NCC(N)=O` [E-14] (H-CYFQNC[AMPB(E)]RG-NH2; disulfide 1-6), in data set [1], the maximal effect (Emax) is 48 ± 2% and the “V1bR E/Z ratio EC50” value stood at 2.1. Moreover, the EC50 in data set [1] (setting [6]) came to 4.97 ± 0.754 µM. The EC50 in data set [2] (setting [7]) is above 10 µM.
Taken in the same sequence, the figures for `NC(=O)CC[C@@H]1NC(=O)[C@H](Cc2ccccc2)NC(=O)[C@H](Cc2ccc(O)cc2)NC(=O)[C@@H](N)CSSC[C@@H](C(=O)NCc2ccc(/N=N\c3ccc(C(=O)NCC(N)=O)cc3)cc2)NC(=O)[C@H](CC(N)=O)NC1=O` [Z-13] (H-CYFQNC[X2]G-NH2; disulfide 1-6) were 52 ± 5%, 1.6, 7.23 ± 1.57 µM and above 10 µM.
For the molecule `N=C(N)NCCC[C@H](NC(=O)c1ccc(/N=N\c2ccc(CNC(=O)[C@@H]3CSSC[C@H](N)C(=O)N[C@@H](Cc4ccc(O)cc4)C(=O)N[C@@H](Cc4ccccc4)C(=O)N[C@@H](CCC(N)=O)C(=O)N[C@@H](CC(N)=O)C(=O)N3)cc2)cc1)C(=O)NCC(N)=O` [Z-14] (H-CYFQNC[X2]RG-NH2; disulfide 1-6), in data set [1], the Emax is 67 ± 2% and the “V1bR E/Z ratio EC50” value came to 2.1. Further, the EC50 in data set [1] (setting [6]) amounted to 2.37 ± 0.607 µM. Also, the EC50 in data set [2] (setting [7]) is above 10 µM.
For `N=C(N)NCCC[C@H](NC(=O)[C@@H]1CCCN1C(=O)[C@@H]1CSSC[C@H](N)C(=O)N[C@@H](Cc2ccc(O)cc2)C(=O)N[C@@H](Cc2ccc(/N=N/c3ccccc3)cc2)C(=O)N[C@@H](CCC(N)=O)C(=O)N[C@@H](CC(N)=O)C(=O)N1)C(=O)NCC(N)=O` [compound 12, [AzbS^3]-VP], the “potency difference between the E and Z isomers at V1bR (photoswitch window)” value in data set [1] (EC50 E vs Z) was 5.3 fold and 5 fold. Further, the “t1/2 (thermal half-life, Figure S50)” value in data set [3] (25 °C) was found to be 72 h; in data set [3] (37 °C), 33.6 h. The “t1/2 (thermal half-life Z to E)” value in data set [3] (25 °C, HEPES buffer pH 7.4) turned out to be 72 h; in data set [3] (37 °C), 33.6 h. Also, the “reduced potency at V1aR compared to VP” value in data set [2] (EC50 vs VP) is recorded as above 1000 fold.
In the case of `NC(=O)CC[C@@H]1NC(=O)[C@H](Cc2ccccc2)NC(=O)[C@H](Cc2ccc(O)cc2)NC(=O)[C@@H](N)CSSC[C@@H](C(=O)NCc2ccc(/N=N/c3ccc(C(=O)NCC(N)=O)cc3)cc2)NC(=O)[C@H](CC(N)=O)NC1=O` [compound 13, [AzbL^7/8]-VP] (H-CYFQNC[AMPB(E)]G-NH2; disulfide 1-6), the “reduced potency at V1bR compared to VP” value in data set [1] (EC50 vs VP) is listed as 700–2000 fold. The EC50 was 11.3 ± 1.83 µM in data set [1] (supplementary CSV, read-out: activity E-isomer V1bR); 7.23 ± 1.58 µM in data set [1] (supplementary CSV, read-out: activity Z-isomer V1bR); above 10 µM in data set [2] (supplementary CSV, µM, read-out: activity E-isomer V1aR); above 10 µM in data set [2] (supplementary CSV, µM, read-out: activity Z-isomer V1aR). Further, the “t1/2 (thermal half-life, Figure S50)” value in data set [3] (25 °C) is recorded as 12.4 h. Moreover, in data set [3] (25 °C, HEPES buffer pH 7.4), the “t1/2 (thermal half-life Z to E)” value is 12 h. In addition, the “PSS (E → Z)” value in data set [4] is recorded as 85%. Moreover, in data set [4], the “PSS (Z → E)” value is on record as 79%. Further, the “antagonistic activity at V1aR” value in data set [5] is on record as “some level of antagonistic activity”. For the same molecule, the VP displacement in data set [5] (at 10 μM) was found to be 76%. Further, the “agonist activity at V1aR” value in data set [2] (concentrations up to 10 μM) is “complete loss of potency”.
For [AzbC(o,o)^1,Dap^6]-VP [compound 15], the “t1/2 (thermal half-life, Figure S50)” value in data set [3] (25 °C) is 64.8 h. Moreover, in data set [3] (25 °C, HEPES buffer pH 7.4), the “t1/2 (thermal half-life Z to E)” value was 64.8 h. Further, in data set [4], the “PSS (E → Z)” value is 88% and the “PSS (Z → E)” value is 69%. In addition, the “antagonistic activity at V1aR” value in data set [5] is on record as “some antagonistic properties”.
